Test results taken from patent US12071624B2, “Antisense oligonucleotide targeting ARL4C molecule, and nucleic acid drug using antisense oligonucleotide” (OSAKA UNIVERSITY, priority 2018, dated 2024).
[AmNA] = 2',4'-bridged nucleic acid with N-methyl amide bridge (AmNA); d = 2'-deoxy (DNA)

Legend:
ARL4C mRNA = ARL4C mRNA amount by real-time PCR in HLE cells; assay type: cell-based, human; conditions: for effect of reducing the ARL4C mRNA amount at a low concentration: HLE cells transfected at 0.5 to 25 nM
Method: (§1) HLE cells, HCT116 cells, and A549 cells were transfected with 25 to 50 nM ASO and 10 to 20 nM siRNA using Lipofectamine 3000 (Invitrogen, Carlsbad, CA, USA) or RNAiMAX (Invitrogen). Transfected cells were used in the experiments 36 to 48 hours after the end of the transfection.
(§2) Cell migration assays and quantitative real-time PCR analyses were performed according to the methods reported by Fujii S et al. (Oncogene 2015; 34: 4834-44).
HLE cells and HCT116 cells were transfected with the above-described seven types of ARL4C ASOs and the control ASO at 25 nM, and the ARL4C mRNA amounts were measured by real-time PCR; the results thereof are shown in (a) of FIG. 4. […] In order to optimize the effect of these three types of ARL4C ASOs, four bases were added to each of these three types of ARL4C ASOs, whereby ASO-1312, ASO-1450, and ASO-3223 each of which consisted of 19 bases were produced. With these six types of ARL4C ASOs (ASO-1316, ASO-1312, ASO-1454, ASO-1450, ASO-3225, and ASO-3223), the knockdown effect on ARL4C was further studied.
HLE cells were transfected with ARL4C ASOs (ASO-1316, ASO-1312, ASO-1454, ASO-1450, ASO-3225, and ASO-3223) at 25 nM each, and the ARL4C mRNA amounts were measured by real-time PCR; the results are shown in (c) of FIG. 3. In addition, HLE cells were transfected with ARL4C ASOs (ASO-1316, ASO-1312, ASO-3225, and ASO-3223) at 0.5 to 25 nM each, and the ARL4C mRNA amounts were measured by real-time PCR; the results are shown in (b) of FIG. 4.
HLE cells were treated with 10 μM PD184161 or 10 nM CTNNB1 siRNA (siRNA against CTNNB1), and the ARL4C mRNA amount was measured by real-time PCR; the results are shown in (a) of FIG. 5. In addition, HLE cells were treated with 10 nM CTNNB1 siRNA (siRNA against CTNNB1), and the ARL4C mRNA amount was measured by real-time PCR; the results thereof are shown in (a) of FIG. 6. PD184161 is a compound that inhibits MEK without knocking down […].

neurolysin (NLN) mRNA = assay: Off-target gene mRNA by real-time PCR in HLE cells (NLN); assay type: cell-based, human; conditions: HLE cells transfected at 25 nM
Method: Potential off-target genes in ARL4C ASO (hARL4C ASO-1316-AmNA [15-mer] (ARL4C ASO-1316) and hARL4C-3223-AmNA [19-mer] (ARL4C ASO-3223)) were identified by using database “Human Genomic plus Transcript (Human G+T)” (Build 2.7.1) as well as basic local alignment search tools (BLAST+programs) using MegaBlast algorithm.
as §2
Four genes of neurolysin (NLN), sapiens F-box and leucine-rich repeat protein 19 (FBXL19), keratin-associated protein 15-1 (KRTAP15-1), and sialic acid binding Ig-like lectin 6 (SIGLEC6) were identified as candidates for off-target genes of ASO-1316 and ASO-3223 by in silico analysis. HLE cells were transfected with ASO-1316 and ASO-3223 at 25 nM each, and mRNA amounts of NLN and FBXL19 were measured by real-time PCR; the results are shown in (d) of FIG. 3. […] In addition, KRTAP15-1 and SIGLEC6 were only slightly expressed in the HLE cells (data not shown).

HLE cells = assay: Cell migration assay in HLE/GFP and HLE/ARL4C-GFP cells; assay type: cell-based; conditions: HLE/GFP or HLE/ARL4C-GFP cells transfected at 25 nM
Source text: HLE cells allowing for the stable expression of GFP (HLE/GFP cells), HLE cells allowing for the stable expression of ARL4c-GFP with GFP fused to the C-terminal side (HLE/ARL4C-GFP cells, i.e., cells in which ARL4C-GFP is transduced and stably expressed), HCT116 cells allowing for the stable expression of luciferase (HCT116/Luc cells), A549 cells allowing for the stable expression of luciferase (A549/Luc cells), and S2-CP8 cells allowing for the stable expression of luciferase (S2-CP8/Luc cells) were produced using lentivirus according to the method reported by Matsumoto S et al. (EMBO J 2014; 33: 702-18) and Fujii S et al. (Oncogene 2015; 34: 4834-44). In addition, ARL4C-GFP is ARL4C with GFP fused thereto.
as §1
Cell migration assays and quantitative real-time PCR analyses were performed according to the methods reported by Fujii S et al. (Oncogene 2015; 34: 4834-44). […]

HCT116 cells = assay: Cell migration assay in HCT116 cells; assay type: cell-based; conditions: HCT116 cells transfected at 25 nM
Method: as §1, §2
In addition, HCT116 cells were transfected with control ASO, ASO-1316 and ASO-3223 at 25 nM, and a cell migration assay was carried out; the results are shown in (e) of FIG. 3.

[1] = tested on: nuclear localization of YAP in A549 cells; assay: Anti-YAP/TAZ antibody staining in A549 cells; assay type: cell-based, human; conditions: A549 cells transfected at 25 nM
Method: as §1
HLE cells or A549 cells were transfected with control ASO, ASO-1316, and ASO-3223 at 25 nM, and were stained with an anti-YAP/TAZ antibody; the results are shown in (c) of FIG. 6.

PIK3CD mRNA = PIK3CD mRNA amount by real-time PCR in HLE cells; assay type: cell-based, human; conditions: HLE cells transfected with ASO at 25 nM
Method: as §1, §2
HLE cells were treated with 25 μM SecinH3 (inhibitor of Arf nucleotide-binding site opener (ARNO)) or 50 μM NSC23766 (Rac inhibitor), and the amount of PIK3CD mRNA was measured by real-time PCR; the results are shown in (c) of FIG. 5.
HLE cells were transfected with control ASO, ASO-1316, and ASO-3223 at 25 nM, and the PIK3CD mRNA amount was measured by real-time PCR; the results are shown in (g) of FIG. 5. In addition, an anti-phosphorylated AKT (pAKT S473) antibody and an anti-AKT antibody as probes were caused to act on cell lysates of HLE cells transfected with control ASO, ASO-1316, and ASO-3223; the results are shown in (h) of FIG. 5.

ASO-3223: 19-mer ARL4C ASO of Table 1, SEQ ID NO 55 (antisense NNNGGTTACAGTATTTNNC; sugars from the 5' end [AmNA]3 d13 [AmNA]2 d1, backbone, methylation of C and the base at N not given here; further chemistry not fully specified)
effect of reducing the ARL4C mRNA amount at a low concentration (ARL4C mRNA): high effects of reducing the ARL4C mRNA amount
NLN mRNA amount (off-target) (neurolysin (NLN) mRNA): did not significantly affect the expression
cell migration (HLE cells): suppress the migration of HLE cells
cell migration (HCT116 cells): suppress the migration of HCT116 cells
nuclear localization of YAP [1]: inhibited the nuclear localization of YAP
PIK3CD mRNA amount / PIK3CD expression (PIK3CD mRNA): suppressing PIK3CD expression

ASO-1316: 15-mer AmNA/phosphorothioate ASO targeting ARL4C, base sequence SEQ ID NO: 1 gcatacctcaggtaa; Table 1 SEQ ID NO 13 (antisense GCATACCTCAGGTAA; AmNA and phosphorothioate modified, pattern not given here)
ARL4C mRNA amount (ARL4C mRNA; HLE cells transfected at 25 nM): reduced the ARL4C mRNA amount
effect of reducing the ARL4C mRNA amount at a low concentration (ARL4C mRNA): high effects of reducing the ARL4C mRNA amount
NLN mRNA amount (off-target) (neurolysin (NLN) mRNA): did not significantly affect the expression
cell migration (HLE cells): suppress the migration of HLE cells
cell migration (HCT116 cells): suppress the migration of HCT116 cells
nuclear localization of YAP [1]: inhibited the nuclear localization of YAP
PIK3CD mRNA amount / PIK3CD expression (PIK3CD mRNA): suppressing PIK3CD expression
